Experimental findings from patent publication US7495027B2, “3-aryl-4-hydroxyfuranone compounds and the human and animal health use thereof” (Wyeth, priority 2003, dated 2009) are described below.

In series [1] the target is E. coli Uridine-diphosphate-N-acetylmuramoyl-L-alanine: D-glutamate liease, MurD (Escherichia coli, UniProt P14900). Put plainly: biochemical. The note with it: (E) E. coli enzyme. Summed up: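 Compound working solutions reach 100 μg/mL in 50 mM Tris/HCl (pH 8.5) after dilution of 10 mg/mL DMSO stocks; final level in the well not given here. Reaction buffer finals: 2 mM ATP, 50 mM MgCl2, 83 mM Tris/HCl, pH 8.0.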

Series [2] addresses E. coli Uridine-diphosphate-N-acetvimuramoyl: L-alanine lipase, MurC (Escherichia coli, UniProt P17952). Put plainly: Inhibitory activity against MurC (E. coli). It counts as biochemical.
Series [3] relates to larvae of blowfly, Lucilia sericata. Nature of the series: whole plant or invertebrate. Particulars: dose rate of 20 ppm, Lucilia sericata larvae on treated filter paper with bovine serum. The method, then: Comparative Evaluation of the Efficacy of a 3-Aryl-4-hydroxyfuranone Compound Against Blowfly Larvae
In this evaluation, filter paper discs are treated with an acetone solution of test compound and allowed to dry. Bovine serum and newly emerged larvae of blowfly, Lucilia sericata, are added to the treated filter paper. Mortality is assessed at 24 h and 48 h. When more than one evaluation is performed, the data are averaged.

Setting [4] is: assessed at 24 h, read-out: % Mortality 24 h.
[5] abbreviates: assessed at 48 h, read-out: % Mortality 48 h.
[6] abbreviates: (E) E. coli enzyme, read-out: MurC IC50 (converted).

The structures appear in SMILES notation. Where two headings read alike, the source gives them in different places.

Sequence of E. coli Uridine-diphosphate-N-acetylmuramoyl-L-alanine: D-glutamate liease, MurD (P14900 whole entry): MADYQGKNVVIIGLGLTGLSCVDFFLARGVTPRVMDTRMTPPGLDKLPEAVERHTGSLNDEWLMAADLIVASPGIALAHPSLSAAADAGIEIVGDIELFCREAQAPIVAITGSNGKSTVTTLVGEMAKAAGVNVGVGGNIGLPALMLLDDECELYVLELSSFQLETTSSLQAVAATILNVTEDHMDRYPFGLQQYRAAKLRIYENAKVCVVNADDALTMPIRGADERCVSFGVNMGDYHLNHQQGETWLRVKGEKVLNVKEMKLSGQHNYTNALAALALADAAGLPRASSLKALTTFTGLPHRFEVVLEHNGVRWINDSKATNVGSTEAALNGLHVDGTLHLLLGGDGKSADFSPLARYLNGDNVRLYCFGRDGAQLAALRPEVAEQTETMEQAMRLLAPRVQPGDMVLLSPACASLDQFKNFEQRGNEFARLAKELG
Sequence of E. coli Uridine-diphosphate-N-acetvimuramoyl: L-alanine lipase, MurC (P17952 whole entry): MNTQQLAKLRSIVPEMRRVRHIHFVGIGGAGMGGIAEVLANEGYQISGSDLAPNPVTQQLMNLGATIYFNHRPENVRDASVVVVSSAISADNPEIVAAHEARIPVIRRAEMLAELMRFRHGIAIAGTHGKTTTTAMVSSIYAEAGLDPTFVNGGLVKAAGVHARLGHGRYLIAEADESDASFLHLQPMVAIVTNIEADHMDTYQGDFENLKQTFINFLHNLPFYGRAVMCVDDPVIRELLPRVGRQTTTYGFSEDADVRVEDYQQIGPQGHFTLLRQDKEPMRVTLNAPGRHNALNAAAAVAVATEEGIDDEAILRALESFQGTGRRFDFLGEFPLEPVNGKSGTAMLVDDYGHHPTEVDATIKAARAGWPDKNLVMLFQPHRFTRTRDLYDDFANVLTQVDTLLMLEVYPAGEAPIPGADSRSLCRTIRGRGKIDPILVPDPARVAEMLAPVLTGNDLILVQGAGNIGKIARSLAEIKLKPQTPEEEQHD

In the case of `O=C1O/C(=C\c2ccc(-c3cccc(C(F)(F)F)c3)cc2)C(O)=C1c1cccc(C(F)(F)F)c1`, the “MurD IC50” value in series [1] came to 24 µg/mL. For the same compound, the “MurC IC50” value in series [2] ((E) E. coli enzyme) stood at 11 µg/mL. Also, the “% Mortality 24 h” value in series [3] (assessed at 24 h) was found to be 0%. In series [3] (assessed at 48 h), the “% Mortality 48 h” value was 0%.

For `O=C1O/C(=C\c2ccc(-c3cc(Cl)cc(Cl)c3)cc2)C(O)=C1c1cc(Cl)cc(Cl)c1`, the “MurD IC50” value in series [1] was found to be 6 µg/mL. Also, in series [2] ((E) E. coli enzyme), the “MurC IC50” value is 17 µg/mL. For the same compound, the mortality at 20 ppm in series [3] (setting [4]) and in series [3] (setting [5]) was 0% in each case.

For `O=C1OC(=Cc2ccc(-c3ccccc3)cc2)C(O)=C1c1cccc(C(F)(F)F)c1` (mixture of isomers) [Example 11], the “MurD IC50” value in series [1] came to 21 µg/mL. Also, the “MurC IC50” value in series [2] ((E) E. coli enzyme) was found to be 4 µg/mL.

`Cc1ccc(C=C2OC(=O)C(c3ccc(Cl)cc3)=C2O)s1` (mixture of isomers) [Example 13]: in series [1], the “MurD IC50” value is greater than 25 µg/mL. Besides, the “MurC IC50” value in series [2] ((E) E. coli enzyme) turned out to be 4 µg/mL.

Regarding `O=C1OC(=Cc2cccc3ccccc23)C(O)=C1c1ccc(C=NO)cc1` (mixture of isomers) [Example 73], in series [2] ((E) E. coli enzyme), the “MurC IC50” value worked out at 19 µg/mL.

Take `O=C1O/C(=C\c2ccc(-c3ccccc3)cc2)C(O)=C1c1cccc(C(F)(F)F)c1` [Example 10]: the melting point (as a rule, the temperature of the solid-liquid transition) lay in the range of 240 to 241.5 °C. Further, the IC50 (in general, the concentration needed to halve the response being measured) in series [1] was 51.4 µM. Besides, the IC50 in series [2] (setting [6]) was 9.79 µM.

In the case of `Cc1ccc(C=C2OC(=O)C(c3ccc(Cl)cc3)=C2O)s1` [Example 14], the “MurC IC50” value in series [2] ((E) E. coli enzyme) was 13 µg/mL.

Compound `O=C1O/C(=C\C2CCCCC2)C(O)=C1c1ccc(Cl)cc1` [Example 15] displayed a melting point of 200 to 205 °C. This compound showed an IC50 in series [1] greater than 82 µM. Also, the IC50 in series [2] (setting [6]) is 55.8 µM.

In the case of `O=C1OC(=CC2CCCCC2)C(O)=C1c1cccc(C(F)(F)F)c1` [Example 16], the “MurC IC50” value in series [2] ((E) E. coli enzyme) is 7 µg/mL.

For the compound `O=C1O/C(=C\C2CCCCC2)C(O)=C1c1cccc(C(F)(F)F)c1` [Example 17], in series [2] ((E) E. coli enzyme), the “MurC IC50” value stood at 10 µg/mL.

`COc1ccccc1-c1ccc(/C=C2\OC(=O)C(c3cc(Cl)cc(Cl)c3)=C2O)cc1OC` [Example 19]: the values for the IC50 in series [1] and in series [2] (setting [6]) were greater than 53.3 µM and 12.8 µM, respectively.

With `COc1ccccc1-c1ccc(/C=C2\OC(=O)C(c3ccc(Cl)c(Cl)c3)=C2O)cc1OC` [Example 20], the IC50 in series [1] was greater than 53.3 µM; in series [2] (setting [6]), 23.4 µM.

For the compound `O=C1O/C(=C\c2cccc(C(F)(F)F)c2)C(O)=C1c1ccc2ccccc2c1` [Example 42], in series [2] ((E) E. coli enzyme), the “MurC IC50” value was determined as 6 µg/mL.

On to `O=C1O/C(=C\c2ccc(Cl)cc2)C(O)=C1c1ccc2ccccc2c1` [Example 43], for which the melting point lay in the range of 243 to 250 °C. Further, in series [1], the IC50 was greater than 71.7 µM. Moreover, the IC50 in series [2] (setting [6]) is 11.5 µM.

Turning to `O=C1O/C(=C\c2cccc3ccccc23)C(O)=C1c1cccc2ccccc12` [Example 47], the melting point fell in the range of 216 to 218 °C. The same compound gave an IC50 in series [1] greater than 68.6 µM. Moreover, the IC50 in series [2] (setting [6]) was 30.2 µM.

In the case of `O=C1O/C(=C\C2CCCCC2)C(O)=C1c1ccc2ccccc2c1` [Example 51], in series [1], the IC50 is greater than 78 µM. Besides, the “MurC IC50” value in series [2] ((E) E. coli enzyme) turned out to be 9 µg/mL.

As to `O=C1O/C(=C\c2ccc3ccccc3c2)C(O)=C1c1ccc2ccccc2c1` [Example 52], the melting point fell in the range of 285 to 290 °C. In addition, the IC50 in series [1] is 63.1 µM. In series [2] (setting [6]), the IC50 is 46.7 µM.

`O=C1O/C(=C\c2ccc(-c3ccccc3)cc2)C(O)=C1c1ccc(Cl)cc1` [Example 53] registered a melting point of 282 to 285 °C. Also, in series [1], it took 13.3 µM to reach half-maximal inhibition (IC50). For the same compound, the IC50 in series [2] (setting [6]) was 13.3 µM.

Compound `O=C1O/C(=C\c2ccc3ccccc3c2)C(O)=C1c1ccc(Cl)cc1` [Example 54] came in with a melting point of 284 to 286 °C. Besides, the IC50 in series [1] is greater than 71.7 µM. For the same compound, in series [2] (setting [6]), the IC50 is 14.3 µM.

In turn, `O=C1O/C(=C\c2ccc3ccccc3c2)C(O)=C1c1cccc2ccccc12` [Example 56] registered a melting point of 235 to 237 °C. In addition, the IC50 in series [1] was greater than 68.6 µM. Besides, the IC50 in series [2] (setting [6]) is 13.7 µM.

Compound `O=C1O/C(=C\c2ccc(-c3ccccc3)cc2)C(O)=C1c1cc(Cl)cc(Cl)c1` [Example 67] registered a melting point of 279 to 280 °C. Moreover, half-maximal inhibition in series [1] (IC50) required 22 µM. In series [2] (setting [6]), the IC50 is 14.7 µM.

Regarding `O=C1O/C(=C\c2ccc(-c3ccccc3)cc2)C(O)=C1c1cccc(Cl)c1` [Example 69], the melting point is 248 to 250 °C. This compound also had an IC50 in series [1] of 50.7 µM.

Compound `O=C1O/C(=C\c2cccc3ccccc23)C(O)=C1c1cc(Cl)cc(Cl)c1` [Example 70] registered a melting point of 244 to 245 °C. The same compound had an IC50 in series [1] of 44.4 µM. The IC50 in series [2] (setting [6]) was 13 µM.

Compound `O=C1O/C(=C\c2cccc3ccccc23)C(O)=C1c1ccc(C(F)(F)F)cc1` [Example 71] came in with a melting point of 245 to 247 °C. The compound further registered an IC50 in series [1] greater than 65.4 µM. Besides, the IC50 in series [2] (setting [6]) was 28.8 µM.

In turn, `COc1cccc(C2=C(O)/C(=C/c3cccc4ccccc34)OC2=O)c1` [Example 72] yielded a melting point of 214 to 216 °C. The compound also returned an IC50 in series [1] greater than 72.6 µM. Besides, the IC50 in series [2] (setting [6]) was greater than 72.6 µM.

With `COC(=O)c1ccc(C2=C(O)/C(=C/c3cccc4ccccc34)OC2=O)cc1` [Example 74], the melting point is 242 to 244 °C. Further, the IC50 in series [1] was greater than 67.1 µM. Moreover, the IC50 in series [2] (setting [6]) is 51 µM.

For the compound `CCOC(=O)c1cccc(C2=C(O)C(=Cc3cccc4ccccc34)OC2=O)c1` [Example 75], the “MurC IC50” value in series [2] ((E) E. coli enzyme) is 18 µg/mL.

In turn, `O=Cc1cccc(C2=C(O)/C(=C/c3cccc4ccccc34)OC2=O)c1` [Example 76] gave a melting point of 220 to 221 °C. The compound also showed an IC50 in series [1] of 67.2 µM. In series [2] (setting [6]), the IC50 was 14.6 µM.

As to `O=C1O/C(=C\c2cccc3ccccc23)C(O)=C1c1cccc(C=NO)c1` [Example 77], the “MurC IC50” value in series [2] ((E) E. coli enzyme) was 9 µg/mL.

The compound `O=C1O/C(=C\C2CCCCC2)C(O)=C1c1ccc(-c2ccccc2)cc1` [Example 100] had a melting point of 204 to 207 °C. The IC50 in series [1] is greater than 72.2 µM. Further, the IC50 in series [2] (setting [6]) was 37.5 µM.

Turning to `O=C1O/C(=C\c2cccnc2)C(O)=C1c1ccc(-c2ccccc2)cc1` [Example 101], the melting point is 252 to 255 °C. Further, the IC50 in series [1] is greater than 73.2 µM. Further, the IC50 in series [2] (setting [6]) is 52.7 µM.

The compound `Cc1ccc(/C=C2\OC(=O)C(c3ccc(-c4ccccc4)cc3)=C2O)s1` [Example 104] showed a melting point of 235 to 240 °C. This compound also returned an IC50 in series [1] greater than 69.4 µM. For the same compound, the IC50 in series [2] (setting [6]) was 13.9 µM.

As to `O=C1O/C(=C\c2cccc(C(F)(F)F)c2)C(O)=C1c1ccc(-c2ccccc2)c(F)c1` [Example 106], in series [2] (setting [6]), the 50% inhibitory concentration (IC50) is 21.1 µM.

On to `O=C1O/C(=C\c2cccc(-c3cccc(Cl)c3)c2)C(O)=C1c1cccc(Cl)c1` [Example 134], for which the “MurD IC50” value in series [1] turned out to be 6 µg/mL. Besides, the “MurC IC50” value in series [2] ((E) E. coli enzyme) is 5 µg/mL.

Turning to `O=C1O/C(=C\c2cccc(-c3cc(Cl)cc(Cl)c3)c2)C(O)=C1c1cc(Cl)cc(Cl)c1` [Example 136], in series [1], the IC50 is 12.5 µM. Further, the “MurC IC50” value in series [2] ((E) E. coli enzyme) is 11 µg/mL.

Regarding `O=C1O/C(=C\c2ccccc2-c2ccc(Cl)cc2)C(O)=C1c1ccc(Cl)cc1` [Example 137], the IC50 in series [2] (setting [6]) is 41.5 µM.

Regarding `O=C1O/C(=C\c2ccc(Cl)cc2)C(O)=C1c1ccc(-c2ccccc2)c(F)c1` [Example 138], the melting point lay within 255 to 258 °C. Further, the IC50 in series [2] (setting [6]) is 12.7 µM.

`O=C1O/C(=C\c2ccc(-c3ccccc3)cc2)C(O)=C1c1csc2ccccc12` [Example 143]: the melting point is 270 °C.

For `O=C1O/C(=C\c2ccc(-c3ccccc3)cc2)C(O)=C1c1cccs1` [Example 144], the melting point was 213 °C (dec.).

Take `O=C1O/C(=C\c2ccc(C(F)(F)F)cc2)C(O)=C1c1ccc(-c2ccccc2)cc1` [R=H, R1=4-(biphenyl), R2=4-CF3—C6H4]: the IC50 in series [1] is 29.4 µM; in series [2] (MurC IC50, (E) E. coli enzyme), 12.2 µM. For the same compound, the mortality at 20 ppm in series [3] (setting [4]) and in series [3] (setting [5]) was 0% each time.

`O=C1O/C(=C\c2ccc(-c3ccc(Cl)cc3)cc2)C(O)=C1c1ccc(Cl)cc1` [R=H, R1=4-Cl—C6H4, R2=4-(4′-Cl-biphenyl)]: the IC50 in series [1] is 14.7 µM; in series [2] (MurC IC50, (E) E. coli enzyme) it was 29.3 µM. For the same compound, the mortality at 20 ppm in series [3] (setting [4]) and in series [3] (setting [5]) was 0% each time.

Regarding `O=C1O/C(=C\c2cccc3ccccc23)C(O)=C1c1ccc(-c2ccccc2)cc1` [R=H, R1=4-biphenyl, R2=1-naphthyl], the IC50 is greater than 64 µM in series [1] and 15.4 µM in series [2] (MurC IC50, (E) E. coli enzyme). For the same compound, the mortality at 20 ppm in series [3] (setting [4]) and in series [3] (setting [5]) was 100% throughout.
